Results taken from article PMC10673995, “Discovery of a novel cardiac-specific myosin modulator using artificial intelligence-based virtual screening” (Nature Communications, 2023).
“And” between values parts separate entries of the source, which are not always exact repeats. Equal values may be shown once.

Experiments:
[1] = target: bovine cardiac myofibrils (Bos taurus, UniProt Q9BE39); assay: mant-ATP chase single nucleotide turnover, cardiac myofibrils;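 further: bovine cardiac myofibrils at 1 mg/mL in PIPES buffer, 20 µM mant-ATP aged 1 min then chased with 20 mM ATP, fluorescence (ex 360, em 450 nm) read every second for 15 min at 25 °C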
Excerpt: We used systems of increasing complexity ranging from the isolated cardiac myosin motor domains (Fig. 3a) to synthetic thick filaments formed from purified full-length bovine cardiac myosin (Fig. 3b) and bovine cardiac myofibrils as substrates in the chase assays (Fig. 3c). In contrast to the isolated myosin motors, synthetic thick filaments contain two myosin head domains per molecule connected via their coiled-coil tail.
Synthetic thick filaments were freshly prepared by diluting full-length bovine cardiac myosin stock into assay buffer (composition in mmol L^−1: 15 PIPES pH 7, 5 MgCl2, 1 DTT) and incubation on ice for 2 h. Bovine myosin S1 and synthetic thick filament concentrations were adjusted to 0.4 μmol L^−1 with assay buffer and 40 μL aliquoted into individual wells of a black 384-well plate (Greiner). Mant-ATP (JenaBioscience) was added to each well to a final concentration of 0.4 μmol L^−1 using an automated injector unit in a ClarioStar Plate Reader (BMG LabTech) and the system was allowed to age for 1 min. The chase phase was started by adding a final concentration of 2 mmol L^−1 ATP using a second automated injector unit. Fluorescence intensity from each well was constantly measured for 15 min every 1 sec at 25 °C with the following settings: excitation at 360 nm with a 20 nm bandwidth and emission at 450 nm with a 20 nm bandwidth. For experiments with cardiac myofibrils the concentration was adjusted to 1 mg m L^−1, and the mant-ATP and ATP concentrations were increased to 20 μmol L^−1 and 20 mmol L^−1, respectively.

[2] = system: fast skeletal muscle (Tiberialis Anterior) myofibrils; assay: Myofibrillar ATPase, fast skeletal myofibrils; type: biochemical, marmoset (Callithrix jacchus)
Excerpt: Next we tested the myosin isoform specificity of F10 by measuring its effect on the ATPase activity of myofibrils isolated from ventricle, and fast (Tiberialis Anterior) and slow skeletal muscles (Soleus) isolated from marmoset (Callithrix jacchus).
Demembranated myofibrils were freshly prepared from bovine ventricle on the day of the experiments as previously described[25],[63]. Marmoset ventricular and skeletal muscle tissue was kindly provided by the Biological Service Unit of King’s College London. Steady-state myofibrillar ATPase activity was measured using an identical protocol as described above but in myofibril assay buffer (composition in mmol L^−1: 20 MOPS pH 7, 50 KCl, 0.1 CaCl2, 1 DTT) with a final bovine CMF concentration of 1 mg mL^−1.

[3] = system: neuropeptide receptor NPYLR7; set-up: method as in PubChem; settings: ref PubChem; cited from earlier work
[4] = target: bovine cardiac myofibrils (CMF) (Bos taurus, UniProt Q9BE39); assay: Bovine cardiac myofibrillar ATPase dose-response (F10 and derivatives)
[5] = Cardiac myofibrils, individual replicates

bovine cardiac myofibrils, sequence (Q9BE39 whole entry): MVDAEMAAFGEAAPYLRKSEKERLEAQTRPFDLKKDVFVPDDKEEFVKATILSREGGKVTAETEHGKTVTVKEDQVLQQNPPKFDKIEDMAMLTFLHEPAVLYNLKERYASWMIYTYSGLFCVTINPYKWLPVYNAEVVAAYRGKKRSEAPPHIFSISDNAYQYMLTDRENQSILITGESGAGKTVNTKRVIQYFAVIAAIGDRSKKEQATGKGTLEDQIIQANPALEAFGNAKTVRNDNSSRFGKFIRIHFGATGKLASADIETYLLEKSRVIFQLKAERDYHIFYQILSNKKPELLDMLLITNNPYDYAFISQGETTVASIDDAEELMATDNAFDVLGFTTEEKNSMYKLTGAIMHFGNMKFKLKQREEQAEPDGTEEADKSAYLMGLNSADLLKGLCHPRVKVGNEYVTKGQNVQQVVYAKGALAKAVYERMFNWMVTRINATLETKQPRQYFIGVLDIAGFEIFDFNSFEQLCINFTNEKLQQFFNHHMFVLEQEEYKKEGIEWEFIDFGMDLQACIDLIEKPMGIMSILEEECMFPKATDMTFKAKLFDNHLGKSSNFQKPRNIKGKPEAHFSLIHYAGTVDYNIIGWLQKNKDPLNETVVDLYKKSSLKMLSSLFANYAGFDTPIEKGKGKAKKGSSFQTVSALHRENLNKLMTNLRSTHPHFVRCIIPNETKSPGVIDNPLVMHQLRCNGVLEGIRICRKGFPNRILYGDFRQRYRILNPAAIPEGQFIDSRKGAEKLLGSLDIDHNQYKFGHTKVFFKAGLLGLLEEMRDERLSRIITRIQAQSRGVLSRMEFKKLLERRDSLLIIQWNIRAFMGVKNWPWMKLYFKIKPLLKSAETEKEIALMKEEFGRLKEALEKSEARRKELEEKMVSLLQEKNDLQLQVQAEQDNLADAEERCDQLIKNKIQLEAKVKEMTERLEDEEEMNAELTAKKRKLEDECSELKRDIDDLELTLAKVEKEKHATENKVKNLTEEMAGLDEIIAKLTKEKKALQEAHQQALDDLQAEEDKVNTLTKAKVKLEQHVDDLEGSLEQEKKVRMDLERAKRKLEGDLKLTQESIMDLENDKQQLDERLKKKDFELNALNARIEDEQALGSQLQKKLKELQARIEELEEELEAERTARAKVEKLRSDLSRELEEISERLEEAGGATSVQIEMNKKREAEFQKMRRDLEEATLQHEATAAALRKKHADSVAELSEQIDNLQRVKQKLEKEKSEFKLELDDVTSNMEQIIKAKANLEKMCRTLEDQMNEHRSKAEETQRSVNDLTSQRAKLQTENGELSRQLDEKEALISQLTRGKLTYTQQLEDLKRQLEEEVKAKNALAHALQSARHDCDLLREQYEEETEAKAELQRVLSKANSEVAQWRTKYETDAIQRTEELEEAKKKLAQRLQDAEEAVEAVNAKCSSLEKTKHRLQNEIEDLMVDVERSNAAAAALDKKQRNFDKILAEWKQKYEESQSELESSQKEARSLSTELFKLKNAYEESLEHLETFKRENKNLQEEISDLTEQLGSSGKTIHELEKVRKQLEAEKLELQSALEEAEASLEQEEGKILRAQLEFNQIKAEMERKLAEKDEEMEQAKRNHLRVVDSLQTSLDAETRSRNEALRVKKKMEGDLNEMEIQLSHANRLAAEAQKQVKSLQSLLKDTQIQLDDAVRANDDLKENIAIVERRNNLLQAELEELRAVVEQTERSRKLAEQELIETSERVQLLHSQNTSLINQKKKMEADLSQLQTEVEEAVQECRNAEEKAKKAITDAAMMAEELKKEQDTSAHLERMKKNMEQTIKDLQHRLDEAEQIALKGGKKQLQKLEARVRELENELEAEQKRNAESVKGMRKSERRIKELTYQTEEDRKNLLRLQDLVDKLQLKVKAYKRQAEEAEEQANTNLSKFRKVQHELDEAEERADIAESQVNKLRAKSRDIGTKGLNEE
bovine cardiac myofibrils, sequence (P85100 whole entry partner): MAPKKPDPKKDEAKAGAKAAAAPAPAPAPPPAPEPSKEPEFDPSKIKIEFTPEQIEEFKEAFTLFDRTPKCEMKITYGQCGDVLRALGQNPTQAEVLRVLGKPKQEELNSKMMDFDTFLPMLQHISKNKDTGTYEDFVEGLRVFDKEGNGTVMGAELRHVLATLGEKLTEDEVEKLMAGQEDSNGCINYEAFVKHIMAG
bovine cardiac myofibrils, sequence (Q3SZE5 whole entry partner): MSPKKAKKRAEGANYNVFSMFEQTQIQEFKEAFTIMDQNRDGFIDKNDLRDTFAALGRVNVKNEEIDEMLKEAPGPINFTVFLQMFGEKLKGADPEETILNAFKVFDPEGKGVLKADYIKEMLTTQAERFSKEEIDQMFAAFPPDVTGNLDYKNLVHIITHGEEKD
bovine cardiac myofibrils (CMF), sequence (Q9BE39 whole entry): as the sequence (Q9BE39 whole entry) above
bovine cardiac myofibrils (CMF), sequence (P85100 whole entry partner): as the sequence (P85100 whole entry partner) above
bovine cardiac myofibrils (CMF), sequence (Q3SZE5 whole entry partner): as the sequence (Q3SZE5 whole entry partner) above

CCc1cc2c(=O)n(NC(=S)NC(C)C)cnc2s1 [F10]
effect on the rate of the fast phase [1]: no effect | kfast ([1]; 2 μmol L^−1 Mavacamten or 20 μmol L^−1 F10, control 0.0719 ± 0.0193): 0.0552 ± 0.0106 s⁻¹ | kfast [1, 5]: 0.02031 s⁻¹ and 0.02851 s⁻¹ and 0.03852 s⁻¹ and 0.09761 s⁻¹ and 0.08409 s⁻¹ and 0.06218 s⁻¹ | kslow [1, 5]: 0.003333 s⁻¹ and 0.002949 s⁻¹ and 0.001064 s⁻¹ and 0.001853 s⁻¹ and 0.00204 s⁻¹ and 0.001557 s⁻¹ | slow phase [1, 5]: 72.63% and 66.55% and 67.45% and 65.69% and 56.45% and 78.18% | Bar graph ([1]; Figure 3c, individual replicates): 72.63 and 66.55 and 67.45 and 65.69 and 56.45 and 78.18 | Representative Traces ([1]; t [s] = 6): 0.8687 | Representative Traces ([1]; t [s] = 7): 0.7649 | Representative Traces ([1]; t [s] = 8): 0.847 | Representative Traces ([1]; t [s] = 9): 0.7441 | Representative Traces ([1]; t [s] = 10): 0.7291 | Representative Traces ([1]; t [s] = 11): 0.7606 | Representative Traces ([1]; t [s] = 12): 0.6903 | Representative Traces ([1]; t [s] = 13): 0.6968 | Representative Traces ([1]; t [s] = 14): 0.7384 | Representative Traces ([1]; t [s] = 96): 0.4594 | Representative Traces ([1]; t [s] = 97): 0.4902 | Representative Traces ([1]; t [s] = 98): 0.4564 | Representative Traces ([1]; t [s] = 99): 0.5227 | Representative Traces ([1]; t [s] = 100): 0.5227 | Representative Traces ([1]; t [s] = 101): 0.4329 | Representative Traces ([1]; t [s] = 102): 0.4816 | Representative Traces ([1]; t [s] = 103): 0.4496 | Representative Traces ([1]; t [s] = 104): 0.4983 | Representative Traces ([1]; t [s] = 105): 0.4303 | Representative Traces ([1]; t [s] = 106): 0.4469 | Representative Traces ([1]; t [s] = 107): 0.4441 | Representative Traces ([1]; t [s] = 108): 0.454 | Representative Traces ([1]; t [s] = 109): 0.4003 | Representative Traces ([1]; t [s] = 110): 0.4314 | Representative Traces ([1]; t [s] = 111): 0.4793 | Representative Traces ([1]; t [s] = 112): 0.4152 | Representative Traces ([1]; t [s] = 113): 0.4525 | Representative Traces ([1]; t [s] = 114): 0.4165 | Representative Traces ([1]; t [s] = 115): 0.4344 | Representative Traces ([1]; t [s] = 116): 0.416 | Representative Traces ([1]; t [s] = 117): 0.4849 | Representative Traces ([1]; t [s] = 118): 0.4794 | Representative Traces ([1]; t [s] = 119): 0.4668 | Representative Traces ([1]; t [s] = 120): 0.4665 | Representative Traces ([1]; t [s] = 121): 0.4689 | Representative Traces ([1]; t [s] = 122): 0.4838 | Representative Traces ([1]; t [s] = 123): 0.4652 | Representative Traces ([1]; t [s] = 124): 0.4182 | Representative Traces ([1]; t [s] = 125): 0.3966 | Representative Traces ([1]; t [s] = 126): 0.4538 | Representative Traces ([1]; t [s] = 127): 0.4517 | Representative Traces ([1]; t [s] = 128): 0.4361 | Representative Traces ([1]; t [s] = 129): 0.4908 | Representative Traces ([1]; t [s] = 130): 0.4396 | Representative Traces ([1]; t [s] = 131): 0.3944 | Representative Traces ([1]; t [s] = 132): 0.397 | Representative Traces ([1]; t [s] = 133): 0.4059 | Representative Traces ([1]; t [s] = 134): 0.4164 | Representative Traces ([1]; t [s] = 135): 0.475 | Representative Traces ([1]; t [s] = 136): 0.486 | Representative Traces ([1]; t [s] = 137): 0.4478 | Representative Traces ([1]; t [s] = 138): 0.507 | Representative Traces ([1]; t [s] = 139): 0.3865 | Representative Traces ([1]; t [s] = 140): 0.4564 | Representative Traces ([1]; t [s] = 141): 0.4199 | Representative Traces ([1]; t [s] = 142): 0.4501 | Representative Traces ([1]; t [s] = 143): 0.4218 | Representative Traces ([1]; t [s] = 144): 0.4033 | Representative Traces ([1]; t [s] = 145): 0.441 | Representative Traces ([1]; t [s] = 146): 0.3827 | Representative Traces ([1]; t [s] = 147): 0.3962 | Representative Traces ([1]; t [s] = 148): 0.4486 | Representative Traces ([1]; t [s] = 149): 0.4251 | Representative Traces ([1]; t [s] = 150): 0.3547 | Representative Traces ([1]; t [s] = 151): 0.4491 | Representative Traces ([1]; t [s] = 152): 0.3776 | Representative Traces ([1]; t [s] = 153): 0.3808 | Representative Traces ([1]; t [s] = 154): 0.3286 | Representative Traces ([1]; t [s] = 155): 0.4639 | Representative Traces ([1]; t [s] = 156): 0.435 | Representative Traces ([1]; t [s] = 157): 0.3725 | Representative Traces ([1]; t [s] = 158): 0.3522 | Representative Traces ([1]; t [s] = 159): 0.4127 | Representative Traces ([1]; t [s] = 160): 0.3983 | Representative Traces ([1]; t [s] = 161): 0.3945 | Representative Traces ([1]; t [s] = 162): 0.3807 | Representative Traces ([1]; t [s] = 163): 0.4372 | Representative Traces ([1]; t [s] = 164): 0.4557 | Representative Traces ([1]; t [s] = 165): 0.4341 | Representative Traces ([1]; t [s] = 166): 0.3757 | Representative Traces ([1]; t [s] = 167): 0.3677 | Representative Traces ([1]; t [s] = 168): 0.4335 | Representative Traces ([1]; t [s] = 169): 0.3827 | Representative Traces ([1]; t [s] = 170): 0.3934 | Representative Traces ([1]; t [s] = 171): 0.3476 | Representative Traces ([1]; t [s] = 172): 0.3794 | Representative Traces ([1]; t [s] = 173): 0.3525 | Representative Traces ([1]; t [s] = 174): 0.3963 | Representative Traces ([1]; t [s] = 175): 0.3642 | Representative Traces ([1]; t [s] = 176): 0.3906 | Representative Traces ([1]; t [s] = 177): 0.3677 | Representative Traces ([1]; t [s] = 178): 0.392 | Representative Traces ([1]; t [s] = 179): 0.4104 | Representative Traces ([1]; t [s] = 180): 0.4065 | Representative Traces ([1]; t [s] = 181): 0.4021 | Representative Traces ([1]; t [s] = 182): 0.3788 | Representative Traces ([1]; t [s] = 183): 0.3953 | Representative Traces ([1]; t [s] = 184): 0.397 | Representative Traces ([1]; t [s] = 185): 0.4128 | Representative Traces ([1]; t [s] = 186): 0.3872 | effect on ATPase of myofibrils isolated from fast skeletal muscle ([2]; 20 μmol L^−1 F10): no effect | Myofibrilar ATPase, individual experiments ([2]; Tiberialis Anterior, 20 μmol L^-1 F10): 103.058% and 94.7749% and 105.182% and 96.587% and 92.4359% and 90.2726% and 101.147% and 99.8027% and 75.8898% and 104.538% and 92.5792% and 95.4782% and 84.5124% and 86.7812% and 82.9998% and 107.831% and 122.01% and 86.3954% and 97.5199% and 112.738% and 111.197% and 105.032% and 96.8457% | Myofibrilar ATPase [%], change vs control ([2]; Tiberials Anterior (fast), 20 μmol L^-1 F10): -3% | biological activity in primary screen [3]: without, however, any biological activity | IC50 [4]: ~24 µM | maximal inhibition of bovine CMF ATPase activity ([4]; suboptimal Ca^2+-activation, about 70% maximal activation): about 60%
